Reference: ChEMBL document CHEMBL3414499, “Characterization of two distinct structural classes of selective aldehyde dehydrogenase 1A1 inhibitors” (J Med Chem, 2015)
Calls of active or inactive are those of the source. No cut-off for these calls is given here.

What was measured:
[1] = molecular target: T1, Aldehyde dehydrogenase, dimeric NADP-preferring (Homo sapiens) (UniProt P30838); assay: Activation of recombinant human ALDH3A1 using benzaldehyde as substrate at 100 uM preincubated for 2 mins with NAD+ followed by substrate addition by UV-Vis spectrophotometric analysis
T1 sequence (whole entry): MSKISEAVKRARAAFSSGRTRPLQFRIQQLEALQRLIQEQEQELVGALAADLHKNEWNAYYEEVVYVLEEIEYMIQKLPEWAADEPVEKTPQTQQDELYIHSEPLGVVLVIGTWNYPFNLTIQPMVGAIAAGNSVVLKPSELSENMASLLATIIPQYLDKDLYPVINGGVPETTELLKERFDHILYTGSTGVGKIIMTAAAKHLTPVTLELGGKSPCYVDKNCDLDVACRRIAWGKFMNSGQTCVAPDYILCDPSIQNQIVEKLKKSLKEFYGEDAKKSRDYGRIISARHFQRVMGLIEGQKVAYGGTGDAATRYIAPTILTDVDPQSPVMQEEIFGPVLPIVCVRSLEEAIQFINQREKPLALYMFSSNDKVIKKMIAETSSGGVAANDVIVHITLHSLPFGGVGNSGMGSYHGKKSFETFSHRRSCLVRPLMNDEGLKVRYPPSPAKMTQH

[2] = molecular target: T1, Aldehyde dehydrogenase, dimeric NADP-preferring (Homo sapiens); assay: Activation of recombinant human ALDH3A1 using benzaldehyde as substrate at 20 uM preincubated for 2 mins with NAD+ followed by substrate addition by UV-Vis spectrophotometric analysis
[3] = molecular target: T2, Retinaldehyde dehydrogenase 3 (Homo sapiens) (UniProt P47895); assay: Activation of recombinant human ALDH1A3 using propionaldehyde as substrate at 100 uM preincubated for 2 mins with NAD+ followed by substrate addition by UV-Vis spectrophotometric analysis
T2 sequence (whole entry): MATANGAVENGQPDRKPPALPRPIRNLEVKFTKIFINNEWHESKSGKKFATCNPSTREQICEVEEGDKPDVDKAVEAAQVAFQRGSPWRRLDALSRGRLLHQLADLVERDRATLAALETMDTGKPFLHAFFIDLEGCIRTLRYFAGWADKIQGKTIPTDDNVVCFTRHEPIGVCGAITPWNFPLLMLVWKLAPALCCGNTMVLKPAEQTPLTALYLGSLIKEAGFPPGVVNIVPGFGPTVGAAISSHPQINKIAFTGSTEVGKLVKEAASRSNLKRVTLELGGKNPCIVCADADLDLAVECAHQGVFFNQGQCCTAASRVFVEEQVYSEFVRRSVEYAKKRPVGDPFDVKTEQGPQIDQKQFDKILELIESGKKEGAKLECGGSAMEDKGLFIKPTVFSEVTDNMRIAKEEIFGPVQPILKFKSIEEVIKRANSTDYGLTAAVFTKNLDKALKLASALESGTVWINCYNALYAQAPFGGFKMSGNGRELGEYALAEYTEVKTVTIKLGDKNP

[4] = molecular target: T2, Retinaldehyde dehydrogenase 3 (Homo sapiens); assay: Activation of recombinant human ALDH1A3 using propionaldehyde as substrate at 20 uM preincubated for 2 mins with NAD+ followed by substrate addition by UV-Vis spectrophotometric analysis
[5] = molecular target: T3, Retinaldehyde dehydrogenase 3 (Homo sapiens, UniProt P47895); assay: Inhibition of recombinant human ALDH1A3 using propionaldehyde as substrate preincubated for 2 mins with NAD+ followed by substrate addition by UV-Vis spectrophotometric analysis
T3 sequence (P47895 whole entry): T2 sequence (whole entry)

[6] = molecular target: T1, Aldehyde dehydrogenase, dimeric NADP-preferring (Homo sapiens); assay: Inhibition of recombinant human ALDH3A1 using benzaldehyde as substrate at 100 uM preincubated for 2 mins with NAD+ followed by substrate addition by UV-Vis spectrophotometric analysis
[7] = molecular target: T4, Aldehyde dehydrogenase, mitochondrial (Homo sapiens, UniProt P05091); assay: Inhibition of recombinant human ALDH2 using propionaldehyde as substrate preincubated for 2 mins with NAD+ followed by substrate addition by UV-Vis spectrophotometric analysis
T4 sequence (P05091 whole entry): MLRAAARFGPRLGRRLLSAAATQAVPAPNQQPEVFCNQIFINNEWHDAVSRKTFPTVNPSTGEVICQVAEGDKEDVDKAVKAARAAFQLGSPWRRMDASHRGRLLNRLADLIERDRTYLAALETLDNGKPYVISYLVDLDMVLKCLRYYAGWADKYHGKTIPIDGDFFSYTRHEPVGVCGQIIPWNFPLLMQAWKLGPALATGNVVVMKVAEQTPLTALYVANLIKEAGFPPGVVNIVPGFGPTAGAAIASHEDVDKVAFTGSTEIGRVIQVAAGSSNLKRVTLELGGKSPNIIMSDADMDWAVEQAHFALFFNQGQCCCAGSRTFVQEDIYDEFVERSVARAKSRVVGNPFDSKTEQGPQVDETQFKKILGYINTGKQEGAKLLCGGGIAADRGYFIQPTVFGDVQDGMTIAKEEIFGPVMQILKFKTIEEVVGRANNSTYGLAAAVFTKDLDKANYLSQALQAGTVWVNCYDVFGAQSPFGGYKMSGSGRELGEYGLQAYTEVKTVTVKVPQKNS

[8] = molecular target: T5, Aldehyde dehydrogenase, mitochondrial (Homo sapiens) (UniProt P05091); assay: Activation of recombinant human ALDH2 using propionaldehyde as substrate at 20 uM preincubated for 2 mins with NAD+ followed by substrate addition by UV-Vis spectrophotometric analysis
T5 sequence (whole entry): T4 sequence (P05091 whole entry)

[9] = molecular target: T2, Retinaldehyde dehydrogenase 3 (Homo sapiens); assay: Inhibition of recombinant human ALDH1A3 using propionaldehyde as substrate at 100 uM preincubated for 2 mins with NAD+ followed by substrate addition by UV-Vis spectrophotometric analysis
[10] = molecular target: T6, Retinal dehydrogenase 2 (Homo sapiens) (UniProt O94788); assay: Activation of recombinant human ALDH1A2 using propionaldehyde as substrate at 100 uM preincubated for 2 mins with NAD+ followed by substrate addition by UV-Vis spectrophotometric analysis
T6 sequence (whole entry): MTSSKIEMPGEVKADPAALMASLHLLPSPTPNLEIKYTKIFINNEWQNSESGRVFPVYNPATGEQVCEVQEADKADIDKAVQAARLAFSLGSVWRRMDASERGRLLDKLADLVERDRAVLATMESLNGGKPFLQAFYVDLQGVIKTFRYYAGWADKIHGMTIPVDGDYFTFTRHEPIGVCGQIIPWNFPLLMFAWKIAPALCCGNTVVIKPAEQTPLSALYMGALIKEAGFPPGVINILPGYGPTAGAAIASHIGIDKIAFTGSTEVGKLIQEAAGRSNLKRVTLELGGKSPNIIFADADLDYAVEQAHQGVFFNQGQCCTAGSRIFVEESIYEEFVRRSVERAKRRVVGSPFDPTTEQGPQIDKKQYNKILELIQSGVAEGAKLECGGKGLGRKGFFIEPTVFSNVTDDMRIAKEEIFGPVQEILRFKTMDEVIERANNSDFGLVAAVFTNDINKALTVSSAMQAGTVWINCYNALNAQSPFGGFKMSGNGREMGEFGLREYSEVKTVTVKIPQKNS

[11] = molecular target: T6, Retinal dehydrogenase 2 (Homo sapiens); assay: Activation of recombinant human ALDH1A2 using propionaldehyde as substrate at 20 uM preincubated for 2 mins with NAD+ followed by substrate addition by UV-Vis spectrophotometric analysis
[12] = molecular target: T7, Aldehyde dehydrogenase 1A1 (Homo sapiens) (UniProt P00352); assay: Effect on recombinant human ALDH1A1 using propionaldehyde as substrate up to 250 uM preincubated for 2 mins with NAD+ followed by substrate addition by UV-Vis spectrophotometric analysis
T7 sequence (whole entry): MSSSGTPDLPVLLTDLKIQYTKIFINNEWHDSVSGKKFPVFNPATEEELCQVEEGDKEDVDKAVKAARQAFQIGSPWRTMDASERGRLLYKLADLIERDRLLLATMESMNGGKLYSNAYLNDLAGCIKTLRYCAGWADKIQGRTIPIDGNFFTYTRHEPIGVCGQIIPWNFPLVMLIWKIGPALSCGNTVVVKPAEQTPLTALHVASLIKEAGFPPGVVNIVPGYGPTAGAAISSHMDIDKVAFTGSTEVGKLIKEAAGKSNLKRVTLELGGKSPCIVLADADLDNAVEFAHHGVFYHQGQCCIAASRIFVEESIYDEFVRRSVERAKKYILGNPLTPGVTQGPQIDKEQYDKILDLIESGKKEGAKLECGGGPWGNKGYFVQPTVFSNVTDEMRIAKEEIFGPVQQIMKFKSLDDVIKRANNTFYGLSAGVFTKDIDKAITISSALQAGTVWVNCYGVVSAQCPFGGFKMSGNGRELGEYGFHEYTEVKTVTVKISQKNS

[13] = molecular target: T8, Aldehyde dehydrogenase X, mitochondrial (Homo sapiens) (UniProt P30837); assay: Inhibition of recombinant human ALDH1B1 using propionaldehyde as substrate at 100 uM preincubated for 2 mins with NAD+ followed by substrate addition by UV-Vis spectrophotometric analysis
T8 sequence (whole entry): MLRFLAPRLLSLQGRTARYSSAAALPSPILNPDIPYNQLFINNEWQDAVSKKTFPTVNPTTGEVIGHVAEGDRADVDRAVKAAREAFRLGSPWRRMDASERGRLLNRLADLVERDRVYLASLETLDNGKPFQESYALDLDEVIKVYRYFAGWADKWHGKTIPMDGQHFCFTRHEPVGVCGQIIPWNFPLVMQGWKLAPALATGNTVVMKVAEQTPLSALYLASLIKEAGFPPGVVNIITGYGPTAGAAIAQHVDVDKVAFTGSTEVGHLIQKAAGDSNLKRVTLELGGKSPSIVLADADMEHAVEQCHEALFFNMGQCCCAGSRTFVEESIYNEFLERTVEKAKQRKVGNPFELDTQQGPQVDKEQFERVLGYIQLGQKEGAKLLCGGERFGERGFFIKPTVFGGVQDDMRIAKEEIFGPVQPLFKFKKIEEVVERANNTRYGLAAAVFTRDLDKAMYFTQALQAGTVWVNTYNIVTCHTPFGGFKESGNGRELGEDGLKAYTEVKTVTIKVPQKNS

[14] = molecular target: T5, Aldehyde dehydrogenase, mitochondrial (Homo sapiens); assay: Inhibition of recombinant human ALDH2 using propionaldehyde as substrate at 100 uM preincubated for 2 mins with NAD+ followed by substrate addition by UV-Vis spectrophotometric analysis
[15] = molecular target: T7, Aldehyde dehydrogenase 1A1 (Homo sapiens); assay: Inhibition of recombinant human ALDH1A1 using propionaldehyde as substrate at 100 uM preincubated for 2 mins with NAD+ followed by substrate addition by UV-Vis spectrophotometric analysis relative to control
[16] = molecular target: T6, Retinal dehydrogenase 2 (Homo sapiens); assay: Inhibition of recombinant human ALDH1A2 using propionaldehyde as substrate at 100 uM preincubated for 2 mins with NAD+ followed by substrate addition by UV-Vis spectrophotometric analysis

Row | SMILES | Activity [2] [%] | Activity [3] | Activity [4] [%] | inhibition [6] | inhibition [9] | further results
1 | Cc1ccc(Cn2c(CN3CCN(c4ccccc4)CC3)nc3c2c(=O)n(C)c(=O)n3C)cc1 | < 10 | Active | < 10 | – | – | Activity [1]: Active
2 | CC(C)CCn1c(CN2CCC(C)CC2)nc2c1c(=O)n(C)c(=O)n2C | < 10 | – | < 10 | inactive | – | IC50 [5]: > 100 µM; IC50 [7]: > 100 µM; Activity [8]: < 10%
3 | CCC1CCCCN1Cc1nc2c(c(=O)n(C)c(=O)n2C)n1Cc1cccc(C)c1 (centres undefined) | < 10 | Active | < 10 | inactive | – | –
4 | CCN1CCN(Cc2nc3c(c(=O)n(C)c(=O)n3C)n2CCC(C)C)CC1 | < 10 | – | < 10 | inactive | inactive | –
5 | Cc1cccc(Cn2c(CN3CCN(C(=O)c4ccco4)CC3)nc3c2c(=O)n(C)c(=O)n3C)c1 | < 10 | Active | < 10 | inactive | – | Activity [10]: Active; Activity [11]: < 10%
6 | CC(C)CCn1c(CN2CCC(C(N)=O)CC2)nc2c1c(=O)n(C)c(=O)n2C | < 10 | Active | < 10 | – | – | Activity [1]: Active
7 | Cn1c(=O)c2c(ncn2C)n(C)c1=O | – | – | – | inactive | inactive | Activity [12]: inactive; inhibition [13]: inactive; inhibition [14]: inactive; inhibition [15]: inactive; inhibition [16]: inactive
8 | Cn1c(=O)c2[nH]cnc2n(C)c1=O | – | – | – | inactive | inactive | inhibition [13]: inactive; inhibition [14]: inactive
